Data: US20140105837A1, “NOVEL ARYL C-XYLOSIDE COMPOUNDS, AND COSMETIC USE” (L'OREAL, priority 2008, published 2014)

Columns and labels:
Type in all cases: cell-based
keratinocytes [1] = assay: Sulfated glycosaminoglycan synthesis on keratinocytes (35S-sulfate radioactive label incorporation); details: for % glycosaminoglycan synthesis relative to the control: control = 100; for Mean value (incorporated radioactivity, sulfated GAGs): n=3
Description: (§1) Study of the effect of C-glycoside derivatives on sulfated glycosaminoglycan synthesis on fibroblasts and on keratinocytes:
(§2) The study is carried out by measuring the incorporation of radioactive glucosamine into the matrix neosynthesized by cultures of normal human dermal fibroblasts or by keratinocytes. The incorporation of radioactive glucosamine indicates specific neosynthesis of glycosaminoglycans via an incorporation of the acetylated form of this glucosamine.
The keratinocyte cultures are performed in keratinocyte-SFM medium sold by the company Gibco, in the presence of EGF (Epidermal Growth Factor) (0.25 ng/ml), of pituitary extract (25 μg/ml) and of gentamycin (25 μg/ml).
The fibroblasts and the keratinocytes were cultured in 96-well plates. At confluence, the culture medium was replaced with suitable culture medium containing or not containing (control) the test compound or the reference, and then the cells were incubated for 48 hours. The 35S-sulfate radioactive label was added (40 μCi final concentration) and the cells were incubated for a further 24 hours. […]
(§3) The extracellular matrix glycosaminoglycans were extracted with one volume of chaotropic buffer (50 mM Tris/HCl, 4 M guanidine, 5 mM, EDTA, pH 8.0). The sulfated GAGs were purified by ion exchange chromatography: absorption of the anionic molecules onto Q-Sepharose beads under high-stringency conditions, desorption of the molecules which are not very anionic and molecules which are moderately anionic, with a 6 M urea solution containing […] NaCl, and then washing.
(§4) The radioactivity incorporated into the highly […] molecules that have remained on the support (predominantly GAGs) was measured by liquid scintillation.
(§5) The results are evaluated relative to a control consisting of cells which have not been treated with a compound of formula (I).
A positive control (CaCl2 at 1.4 mM) known to stimulate GAG synthesis is introduced into the test carried out on keratinocytes, as a positive reference.
(§6) The results are expressed as percentage variation in glycosaminoglycan synthesis relative to the control.

[2] = test system: normal human dermal fibroblasts; assay: Sulfated glycosaminoglycan synthesis on fibroblasts (35S-sulfate radioactive label incorporation); details: for % glycosaminoglycan synthesis relative to the control / Mean value (incorporated radioactivity, sulfated GAGs): fibroblasts; for % glycosaminoglycan synthesis relative to the control: control = 100; for Mean value (incorporated radioactivity, sulfated GAGs): n=3; for Effectiveness for increasing sulfated GAG synthesis (in words): summary of the tests on fibroblasts and keratinocytes
Description: as §1, §2
The fibroblast cultures are performed according to conventional cell culture methods, namely in DMEM medium sold by the company Gibco, in the presence of L-glutamine (2 mM), of penicillin (50 IU/ml) and of 10% of fetal calf serum (Gibco).
The fibroblasts and the keratinocytes were cultured in 96-well plates. At confluence, the culture medium was replaced with suitable culture medium containing or not containing (control) the test compound or the reference, and then the cells were incubated for 48 hours. The 35S-sulfate radioactive label was added (40 μCi final concentration) and the cells were incubated for a further 24 hours. All the conditions were carried out 3 times.
as §3, §4, §5
A positive control (TGFβ at 10 ng/ml) known to stimulate GAG synthesis is introduced into the test carried out on fibroblasts, as a positive reference.
as §6

keratinocytes [3] = assay: Sulfated glycosaminoglycan synthesis on keratinocytes (35S-sulfate radioactive label incorporation); details: other experimental plan, n=2
[4] = test system: normal human dermal fibroblasts; assay: Sulfated glycosaminoglycan synthesis on fibroblasts (35S-sulfate radioactive label incorporation); details: other experimental plan, n=2
[5] = 0.1 mM, other experimental plan

With `[Ca+2].[Cl-].[Cl-]` [CaCl2, reference compound] the “% glycosaminoglycan synthesis relative to the control” value (keratinocytes [1]; CaCl2 at 1.4 mM) was 117% and the “Mean value (incorporated radioactivity, sulfated GAGs)” value (shortened to “Mean value”) (keratinocytes [1]; CaCl2 at 1.4 mM) was 5273 cpm.

In the case of `COc1cc(CCC(O)CC2OC[C@@H](O)[C@H](O)[C@H]2O)ccc1O` (stereo partly drawn) [Compound 1, 1-(α,β)-D-xyopyranosyl-4-(4-hydroxy-3-methoxyphenyl)butan-2-ol], the “% glycosaminoglycan synthesis relative to the control” value ([2]; 40 μM) is reported as 351%, the “Mean value” value ([2]; 40 μM) is reported as 8130 cpm and the “% glycosaminoglycan synthesis relative to the control” value ([2]; 120 μM) is reported as 657%. The “Mean value” value ([2]; 120 μM) was 15318 cpm, the “Effectiveness for increasing sulfated GAG synthesis (in words)” value [2] was “highly effective” and the “Effectiveness for increasing sulfated GAG synthesis (in words)” value ([2]; listed as example 2) was “very effective”. For the same compound, the “% glycosaminoglycan synthesis relative to the control” value (keratinocytes [1]; 0.37 mM) was 707%, the “Mean value” value (keratinocytes [1]; 0.37 mM) was 31999 cpm and the “% glycosaminoglycan synthesis relative to the control” value (keratinocytes [1]; 1.1 mM) was 813%. For the same compound, the “Mean value” value (keratinocytes [1]; 1.1 mM) was 36795 cpm.

In the case of `Oc1ccccc1CCC(O)CC1OC[C@@H](O)[C@H](O)[C@H]1O` (stereo partly drawn) [Compound 8, 1-(α,β)-D-xylopyranosyl-4-(2-hydroxyphenyl)butan-2-ol], the “% glycosaminoglycan synthesis relative to the control” value [2, 5] is reported as 117%, the “% glycosaminoglycan synthesis relative to the control” value ([2]; 1 mM, other experimental plan) is reported as 412% and the “Effectiveness for increasing sulfated GAG synthesis (in words)” value [2] is reported as “highly effective”. The “% glycosaminoglycan synthesis relative to the control” value (keratinocytes [1]; [5]) was 316%, the “% glycosaminoglycan synthesis relative to the control” value (keratinocytes [1]; 1 mM, other experimental plan) was 665% and the “Mean value” value (keratinocytes [3]; 0.1 mM) was 40552 cpm. The “Mean value” value (keratinocytes [3]; 1 mM) was 85456 cpm, the “Mean value” value ([4]; 0.1 mM) was 2938 cpm and the “Mean value” value ([4]; 1 mM) was 10371 cpm.

`OC(CCc1ccccc1)CC1OC[C@@H](O)[C@H](O)[C@H]1O` (stereo partly drawn) [Compound 9, 1-(α,β)-D-xylopyranosyl-4-phenylbutan-2-ol] was tested, and the “% glycosaminoglycan synthesis relative to the control” value [2, 5] was 430%, the “% glycosaminoglycan synthesis relative to the control” value ([2]; 1 mM, other experimental plan) was 938% and the “Effectiveness for increasing sulfated GAG synthesis (in words)” value [2] was “highly effective”. The “% glycosaminoglycan synthesis relative to the control” value (keratinocytes [1]; 0.1 μM, other experimental plan) was 563%, the “% glycosaminoglycan synthesis relative to the control” value (keratinocytes [1]; 1 μM, other experimental plan) was 547% and the “Mean value” value (keratinocytes [3]; 0.1 μM) was 24106 cpm. For the same compound, the “Mean value” value (keratinocytes [3]; 1 μM) was 99041 cpm, the “Mean value” value ([4]; 0.1 mM) was 10838 cpm and the “Mean value” value ([4]; 1 mM) was 23620 cpm.

With “TGFβ: positive control known to stimulate GAG synthesis, used at 10 ng/ml on fibroblasts [reference compound]” the “% glycosaminoglycan synthesis relative to the control” value ([2]; TGFβ at 10 ng/ml) was 174% and the “Mean value” value ([2]; TGFβ at 10 ng/ml) was 4062 cpm.
